Experimental data from patent publication US20210070748A1, “INHIBITORS OF BRUTONS TYROSINE KINASE” (Pharmacyclics LLC, priority 2015, published 2021).
Where two headings read alike, the source gives them in different places.

Experiments:
Type in all cases: biochemical
[1] = biological target: LCK (Homo sapiens, UniProt P06239); experiment: Inhibition of a panel of kinases, in vitro HotSpot kinase assay: LCK; conditions: for IC50: 1 μM ATP, read-out: IC50 LCK; for LCK* IC50 relative to Btk IC50 value: fold relative to Btk IC50 value
LCK, sequence (P06239 whole entry): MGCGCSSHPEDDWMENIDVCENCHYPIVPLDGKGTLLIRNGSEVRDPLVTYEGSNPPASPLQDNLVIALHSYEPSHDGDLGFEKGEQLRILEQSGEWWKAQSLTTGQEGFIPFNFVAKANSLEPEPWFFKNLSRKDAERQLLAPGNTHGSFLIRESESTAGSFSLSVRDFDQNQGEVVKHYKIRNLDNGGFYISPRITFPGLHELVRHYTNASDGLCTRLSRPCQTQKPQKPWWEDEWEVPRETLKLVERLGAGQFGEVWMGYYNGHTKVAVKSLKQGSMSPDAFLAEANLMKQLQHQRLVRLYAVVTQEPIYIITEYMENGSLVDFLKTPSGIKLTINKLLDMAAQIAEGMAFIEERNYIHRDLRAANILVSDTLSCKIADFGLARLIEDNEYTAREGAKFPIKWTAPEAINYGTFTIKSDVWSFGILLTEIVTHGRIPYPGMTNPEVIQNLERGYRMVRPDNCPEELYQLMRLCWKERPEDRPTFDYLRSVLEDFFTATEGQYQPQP

[2] = biological target: EGFR (Homo sapiens, UniProt P00533); experiment: Inhibition of a panel of kinases, in vitro HotSpot kinase assay: EGFR; conditions: for IC50: 1 μM ATP; for EGFR* IC50 relative to Btk IC50 value: fold relative to Btk IC50 value
EGFR, sequence (P00533 25-1210): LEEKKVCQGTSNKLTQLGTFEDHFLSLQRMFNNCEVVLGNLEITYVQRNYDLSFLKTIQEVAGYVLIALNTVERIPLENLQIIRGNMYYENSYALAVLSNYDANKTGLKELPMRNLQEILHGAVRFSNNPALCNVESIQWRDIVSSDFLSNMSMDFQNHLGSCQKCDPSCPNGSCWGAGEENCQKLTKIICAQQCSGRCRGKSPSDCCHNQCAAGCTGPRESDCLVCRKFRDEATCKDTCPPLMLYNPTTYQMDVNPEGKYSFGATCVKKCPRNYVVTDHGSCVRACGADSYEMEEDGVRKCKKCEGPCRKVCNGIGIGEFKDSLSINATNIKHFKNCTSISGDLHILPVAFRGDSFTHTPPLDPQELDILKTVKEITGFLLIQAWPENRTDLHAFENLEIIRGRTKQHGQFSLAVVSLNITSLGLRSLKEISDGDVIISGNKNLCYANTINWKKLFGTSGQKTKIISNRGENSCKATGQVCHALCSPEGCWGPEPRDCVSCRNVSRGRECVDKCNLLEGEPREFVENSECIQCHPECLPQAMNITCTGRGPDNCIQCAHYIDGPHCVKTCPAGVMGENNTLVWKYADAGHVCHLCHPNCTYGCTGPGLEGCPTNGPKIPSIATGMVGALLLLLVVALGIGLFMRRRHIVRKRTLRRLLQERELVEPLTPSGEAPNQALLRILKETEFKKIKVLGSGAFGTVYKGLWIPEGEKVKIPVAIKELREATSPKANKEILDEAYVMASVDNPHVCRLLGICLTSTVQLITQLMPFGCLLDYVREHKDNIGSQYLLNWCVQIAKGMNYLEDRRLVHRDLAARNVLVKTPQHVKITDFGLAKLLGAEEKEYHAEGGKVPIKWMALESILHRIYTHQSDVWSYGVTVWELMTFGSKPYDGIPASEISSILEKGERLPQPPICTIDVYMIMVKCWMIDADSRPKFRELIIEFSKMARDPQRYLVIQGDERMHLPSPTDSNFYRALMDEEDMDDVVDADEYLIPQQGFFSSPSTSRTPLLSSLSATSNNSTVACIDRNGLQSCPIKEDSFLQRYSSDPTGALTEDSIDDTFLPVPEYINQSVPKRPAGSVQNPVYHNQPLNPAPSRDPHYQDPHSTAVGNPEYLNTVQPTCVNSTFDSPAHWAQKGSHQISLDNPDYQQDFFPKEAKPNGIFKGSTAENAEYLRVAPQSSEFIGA
Description: (§1) The degree of inhibition of a panel of kinases is determined using the in vitro HotSpot kinase assay (purified enzymes, ^33P-ATP, an appropriate substrate and 1 μM ATP).

[3] = biological target: T1, TEC (Homo sapiens, UniProt P42680); experiment: Inhibition of a panel of kinases, in vitro HotSpot kinase assay: TEC; conditions: for IC50: 1 μM ATP; for TEC* IC50 relative to Btk IC50 value: fold relative to Btk IC50 value
T1 sequence (P42680 1-631): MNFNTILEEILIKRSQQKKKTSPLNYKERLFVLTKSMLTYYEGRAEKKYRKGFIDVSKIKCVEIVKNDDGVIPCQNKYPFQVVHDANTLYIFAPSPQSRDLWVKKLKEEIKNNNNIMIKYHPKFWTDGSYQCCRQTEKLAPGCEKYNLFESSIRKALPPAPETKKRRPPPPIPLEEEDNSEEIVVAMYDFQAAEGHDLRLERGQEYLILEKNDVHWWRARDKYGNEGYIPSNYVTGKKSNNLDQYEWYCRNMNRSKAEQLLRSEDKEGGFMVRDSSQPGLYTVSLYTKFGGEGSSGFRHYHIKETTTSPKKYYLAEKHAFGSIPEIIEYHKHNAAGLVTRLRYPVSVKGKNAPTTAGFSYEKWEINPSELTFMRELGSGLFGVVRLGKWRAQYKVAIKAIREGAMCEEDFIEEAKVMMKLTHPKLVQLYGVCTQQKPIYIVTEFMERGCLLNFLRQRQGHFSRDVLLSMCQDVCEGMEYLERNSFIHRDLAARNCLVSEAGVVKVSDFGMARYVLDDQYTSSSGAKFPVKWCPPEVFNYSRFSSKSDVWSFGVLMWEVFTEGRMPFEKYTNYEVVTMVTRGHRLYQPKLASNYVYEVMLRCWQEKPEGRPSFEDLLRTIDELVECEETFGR
Description: as §1

[4] = biological target: SRC (Homo sapiens, UniProt P12931); experiment: Inhibition of a panel of kinases, in vitro HotSpot kinase assay: SRC; conditions: for IC50: 1 μM ATP; for SRC* IC50 relative to Btk IC50 value: fold relative to Btk IC50 value
SRC, sequence (P12931 whole entry): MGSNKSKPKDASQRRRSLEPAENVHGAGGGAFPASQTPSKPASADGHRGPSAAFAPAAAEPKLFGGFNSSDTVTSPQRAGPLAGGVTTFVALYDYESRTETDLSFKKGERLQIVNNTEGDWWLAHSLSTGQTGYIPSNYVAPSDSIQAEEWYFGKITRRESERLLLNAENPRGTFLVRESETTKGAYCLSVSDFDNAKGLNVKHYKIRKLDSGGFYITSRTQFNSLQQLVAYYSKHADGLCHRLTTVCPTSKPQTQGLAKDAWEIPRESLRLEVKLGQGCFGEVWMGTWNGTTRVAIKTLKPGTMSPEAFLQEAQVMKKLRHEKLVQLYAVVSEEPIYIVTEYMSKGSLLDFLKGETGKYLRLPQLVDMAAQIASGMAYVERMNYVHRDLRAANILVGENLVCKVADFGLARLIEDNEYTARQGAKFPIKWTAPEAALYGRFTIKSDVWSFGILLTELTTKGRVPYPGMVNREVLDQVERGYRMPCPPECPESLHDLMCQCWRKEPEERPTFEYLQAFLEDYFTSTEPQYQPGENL
Description: as §1

[5] = biological target: T2, BTK-WT (Homo sapiens, UniProt Q06187); experiment: Btk in vitro inhibitory activity (one of Method A TR-FRET, Method B electrophoretic mobility shift, Method C radiometric filter binding)
T2 construct: purified from insect cells as a full-length construct containing an N-terminal 6X-His tag; His6 (N); made in house; host or cells: insect cells (baculovirus Sf21 in Method B)
T2 sequence (Q06187 whole entry): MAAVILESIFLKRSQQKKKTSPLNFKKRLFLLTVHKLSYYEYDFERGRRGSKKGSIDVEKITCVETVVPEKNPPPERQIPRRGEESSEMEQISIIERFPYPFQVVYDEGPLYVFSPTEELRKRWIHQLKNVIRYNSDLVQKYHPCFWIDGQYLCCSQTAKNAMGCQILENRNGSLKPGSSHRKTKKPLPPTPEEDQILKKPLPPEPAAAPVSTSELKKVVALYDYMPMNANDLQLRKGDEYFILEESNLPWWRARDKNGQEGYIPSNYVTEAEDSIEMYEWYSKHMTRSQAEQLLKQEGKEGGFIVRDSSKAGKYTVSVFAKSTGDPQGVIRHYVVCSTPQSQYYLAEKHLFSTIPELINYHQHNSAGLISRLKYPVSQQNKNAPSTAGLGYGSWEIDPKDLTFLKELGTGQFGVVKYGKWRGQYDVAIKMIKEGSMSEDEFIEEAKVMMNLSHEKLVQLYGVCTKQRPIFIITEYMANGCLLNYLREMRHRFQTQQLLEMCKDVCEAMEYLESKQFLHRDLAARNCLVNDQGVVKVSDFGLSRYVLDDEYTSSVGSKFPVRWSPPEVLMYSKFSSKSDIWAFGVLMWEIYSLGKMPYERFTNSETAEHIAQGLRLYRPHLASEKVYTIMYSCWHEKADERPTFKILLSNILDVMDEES

[6] = Table 13, A compounds, read-out: IC50 BTK-WT
[7] = Table 15, C compounds, read-out: IC50 BTK-WT

Compound | LCK* IC50 relative to Btk IC50 value [1] | EGFR* IC50 relative to Btk IC50 value [2] | TEC* IC50 relative to Btk IC50 value [3] | SRC* IC50 relative to Btk IC50 value [4] | IC50 ([5]; read-out: BTK-WT IC50) | IC50 ([1]; Table 15, C compounds) | IC50 ([2]; Table 15, C compounds) | IC50 ([3]; Table 15, C compounds) | IC50 ([4]; Table 15, C compounds) | IC50 [5, 7] | other results
Cc1c(Nc2nc(N3CCC[C@@H](NC(=O)c4ccc(C5CC5)cc4)[C@H]3C)cnc2C(N)=O)cnn1C [Example A-191, 5-((2R,3)R-3-(4-cyclopropylbenzamido)-2-methylpiperidin-1-yl)-3-(1,5-dimethyl-1H-pyrazol-4-ylamino)pyrazine-2-carboxamide] | – | – | – | – | – | – | – | – | – | – | IC50 ([1]; Table 13, A compounds): 1000 to 10000 nM; IC50 ([2]; Table 13, A compounds): 1000 to 10000 nM; IC50 ([3]; Table 13, A compounds): 1000 to 10000 nM; IC50 ([4]; Table 13, A compounds): 1000 to 10000 nM; IC50 [5, 6]: 10 to 100 nM
Cn1cc(Nc2nc(N3CCC[C@@H](NC(=O)c4ccc(C5CC5)cc4)C3)nnc2C(N)=O)cn1 [Example A-202, 3-[(3R)-3-(4-cyclopropylbenzamido)piper-idin-1-yl]-5-[(1-methyl-1H-pyrazol-4-yl)amino]-1,2,4-triazine-6-carboxamide] | 107x | 5208x | 5x | 159x | < 10 nM | – | – | – | – | – | –
C=CC(=O)N1CC[C@@H](N(C)c2nnc(C(N)=O)c(Nc3ccc(C(C)C)cc3)n2)C1 [Example C-41, (R)-3-((1-acryloylpyrrolidin-3-yl)(methyl)amino)-5-(4-isopropylphenylamino)-1,2,4-triazine-6-carboxamide] | – | – | – | – | – | 1000 to 10000 nM | ≤ 10 nM | ≤ 10 nM | 10 to 100 nM | ≤ 10 nM | –
C[C@@H]1[C@H](NC(=O)c2ccc(C3CC3)cc2)CCCN1c1nnc(C(N)=O)c(Nc2cnn(C)c2)n1 [Example A-201, 3-[(2R,3R)-3-(4-cyclopropylbenzamido)-2-methylpiperidin-1-yl]-5-[(1-methyl-1H-pyrazol-4-yl)amino]-1,2,4-triazine-6-carboxamide] | 49x | 2962x | 8x | 47x | < 10 nM | – | – | – | – | – | –
C=CC(=O)N1CCC[C@@H](Nc2nnc(C(N)=O)c(Nc3ccc(C4CCN(C(=O)CC)CC4)cc3)n2)C1 [Example C-57, (R)-3-(1-acryloylpiperidin-3-ylamino)-5-(4-(1-propionylpiperidin-4-yl)phenylamino)-1,2,4-triazine-6-carboxamide] | – | – | – | – | – | 10 to 100 nM | ≤ 10 nM | ≤ 10 nM | 10 to 100 nM | ≤ 10 nM | –
CN1CCN(c2ccc(Nc3nc(N4CCC[C@@H](n5ccc6cc(C7CC7)ccc6c5=O)C4)cnc3C(N)=O)cc2)CC1 [Example A-99, 5-[(3R)-3-(6-cyclo-propyl-1-oxo-1,2-dihydroisoquinolin-2-yl)piperidin-1-yl]-3-{[4-(4-methylpiperazin-1-yl)phenyl]amino}pyrazine-2-carboxamide] | – | – | – | – | – | – | – | – | – | – | IC50 ([1]; Table 13, A compounds): 100 to 1000 nM; IC50 ([2]; Table 13, A compounds): > 10000 nM; IC50 ([3]; Table 13, A compounds): 10 to 100 nM; IC50 ([4]; Table 13, A compounds): 100 to 1000 nM; IC50 [5, 6]: ≤ 10 nM
C[C@@H]1[C@H](NC(=O)c2cc3c(n2C)CC(C)(C)C3)CCCN1c1cnc(C(N)=O)c(Nc2cnn(C)c2)n1 [Example A-193, N-((2R,3R)-1-(5-carbamoyl-6-(1-methyl-1H-pyrazol-4-ylamino)pyrazin-2-yl)-2-methylpiperidin-3-yl)-1,5,5-trimethyl-1,4,5,6-tetrahydrocyclo-penta[b]pyrrole-2-carboxamide] | – | – | – | – | – | – | – | – | – | – | IC50 ([1]; Table 13, A compounds): 100 to 1000 nM; IC50 ([2]; Table 13, A compounds): 100 to 1000 nM; IC50 ([3]; Table 13, A compounds): 10 to 100 nM; IC50 ([4]; Table 13, A compounds): 100 to 1000 nM; IC50 [5, 6]: ≤ 10 nM
C[C@@H]1[C@H](NC(=O)N(C)C)CCCN1c1cnc(C(N)=O)c(Nc2ccc(N3CCN(C)CC3)cc2)n1 [Example A-100, 5-[(2R,3R)-3-[(dimethylcarbamoyl)amino]-2-methylpiperidin-1-yl]-3-{[4-(4-methylpiperazin-1-yl)phenyl]amino}pyrazine-2-carboxamide] | – | – | – | – | – | – | – | – | – | – | IC50 ([1]; Table 13, A compounds): 100 to 1000 nM; IC50 ([2]; Table 13, A compounds): 100 to 1000 nM; IC50 ([3]; Table 13, A compounds): 100 to 1000 nM; IC50 ([4]; Table 13, A compounds): 10 to 100 nM; IC50 [5, 6]: ≤ 10 nM
C=CC(=O)N1CC[C@@H](N(C)c2cnc(C(N)=O)c(Nc3ccc(C4CCN(C5CCCC5)CC4)cc3)n2)C1 [Example C-85, (R)-5-((1-acryloylpyrrolidin-3-yl)(methyl)amino)-3-(4-(1-cyclopentylpiperidin-4-yl)phenylamino) pyrazine-2-carboxamide] | – | – | – | – | – | 100 to 1000 nM | 10 to 100 nM | ≤ 10 nM | 10 to 100 nM | ≤ 10 nM | –
C=CC(=O)N1CCC[C@@H](N(C)c2cnc(C(N)=O)c(Nc3ccc(C4(C)CCN(C5CCCC5)CC4)cc3)n2)C1 [Example C-44, (R)-5-((1-acryloylpiperidin-3-yl)(methyl)amino)-3-(4-(1-cyclopentyl-4-methylpiperidin-4-yl)phenylamino) pyrazine-2-carboxamide] | – | – | – | – | – | < 10 nM | ≤ 10 nM | ≤ 10 nM | ≤ 10 nM | ≤ 10 nM | –
C=CC(=O)N1CCC[C@@H](Nc2nnc(C(N)=O)c(Nc3cc(C)ns3)n2)C1 [Example C-56, (R)-3-(1-acryloylpiperidin-3-ylamino)-5-(3-methylisothiazol-5-ylamino)-1,2,4-triazine-6-carboxamide] | – | – | – | – | – | 10 to 100 nM | ≤ 10 nM | ≤ 10 nM | 10 to 100 nM | ≤ 10 nM | –
C[C@@H]1[C@H](NC(=O)c2ccc(C(C)(C)O)cc2)CCCN1c1cnc(C(N)=O)c(Nc2cnn(C)c2)n1 [Example A-200, 5-((2R,3R)-3-(4-(2-hydroxypropan-2-yl)benzamido)-2-methyl-piperidin-1-yl)-3-(1-methyl-1H-pyrazol-4-yl-amino)pyrazine-2-carboxamide] | 88x | 380x | 3x | 40x | < 10 nM | – | – | – | – | – | –
C[C@@H]1[C@H](NC(=O)c2ccc(C(C)(C)C)cc2)CCCN1c1cnc(C(N)=O)c(Nc2cnn(C)c2)n1 [Example A-203, 5-((2R,3R)-3-(4-tert-butylbenzamido)-2-methylpiperidin-1-yl)-3-(1-methyl-1H-pyrazol-4-ylamino)pyrazine-2-carboxamide] | 684x | 3304x | 8x | 98x | < 10 nM | – | – | – | – | – | –
C[C@@H]1[C@H](NC(=O)c2ccc(C3COC3)cc2)CCCN1c1cnc(C(N)=O)c(Nc2cnn(C)c2)n1 [Example A-206, 3-(1-methyl-1H-pyrazol-4-ylamino)-5-((2R,3R)-2-methyl-3-(4-(oxetan-3-yl)benzamido)piperidin-1-yl)pyrazine-2-carboxamide] | 63x | 896x | 1x | 33x | < 10 nM | – | – | – | – | – | –
C=CC(=O)N1CCC[C@@H](Nc2nnc(C(N)=O)c(Nc3ccc(C(C)(C)C)cc3)n2)C1 [Example C-40, (R)-3-(1-acryloylpiperidin-3-ylamino)-5-(4-tert-butylphenylamino)-1,2,4-triazine-6-carboxamide] | – | – | – | – | – | 100 to 1000 nM | ≤ 10 nM | ≤ 10 nM | – | ≤ 10 nM | –
C=CC(=O)N1CCC[C@@H](N(C)c2cnc(C(N)=O)c(Nc3ccc(C(C)C)cc3)n2)C1 [Example C-42, (R)-5-((1-acryloylpiperidin-3-yl)(methyl)amino)-3-(4-isopropylphenylamino) pyrazine-2-carboxamide] | – | – | – | – | – | 1000 to 10000 nM | – | ≤ 10 nM | 100 to 1000 nM | ≤ 10 nM | –
